For 25 compounds, IC50 results are on record in patent publication US20240158392A1 (Janssen Biotech, Inc., priority 2021, published 2024).

Like-named read-outs stand apart in the source and are kept apart here.

The target of this assay is SIK2 (Homo sapiens, UniProt Q9H0K1). Description: SIK2 Enzymatic Assay High Version 2 (High ATP). In kind it is biochemical. As to the method: All steps were performed at room temperature. Compounds were pre-plated onto an assay plate using an Echo acoustic dispenser (Labcyte, E550 or E555) at 80 nL per well. Enzyme prepared in assay buffer at 6 nM (2× final concentration) was added at 4 μL per well using the Multidrop Combi (Thermo Fisher—used for all additions in this assay) to the assay plate, spun for 1 min at 1000 rpm (Allegra 6KR Beckman Coulter centrifuge), and incubated with compound for 30 minutes. Assay buffer containing 6 mM ATP and 400 μM HDAC5tide (2× of final concentration for each substrate) was added at 4 μL per well to the assay plate and then spun as above and incubated for 2 hours. […] ADP-Glo Max Reagent (prepared and aliquoted as per manufacturer instructions) was then added at 8 μL per well, spun and incubated for 2 hours. ADP-Glo Max Detection (prepared and aliquoted as per manufacturer instructions) was added at 8 μL per well to the assay plate, which was spun and incubated for 1 hour. The plate is then read on the Pherastar (BMG Labtech) using a luminescence read. Gain is set between 2200-2500.

Setting [1] is: enzyme 6 nM, 6 mM ATP and 400 μM HDAC5tide (each 2× final concentration), 30 minutes pre-incubation, 2 hours, ADP-Glo Max luminescence, read-out: SIK2 high ATP IC50 (μM) (Test Example 2).

SIK2, sequence (Q9H0K1 whole entry, species assumed): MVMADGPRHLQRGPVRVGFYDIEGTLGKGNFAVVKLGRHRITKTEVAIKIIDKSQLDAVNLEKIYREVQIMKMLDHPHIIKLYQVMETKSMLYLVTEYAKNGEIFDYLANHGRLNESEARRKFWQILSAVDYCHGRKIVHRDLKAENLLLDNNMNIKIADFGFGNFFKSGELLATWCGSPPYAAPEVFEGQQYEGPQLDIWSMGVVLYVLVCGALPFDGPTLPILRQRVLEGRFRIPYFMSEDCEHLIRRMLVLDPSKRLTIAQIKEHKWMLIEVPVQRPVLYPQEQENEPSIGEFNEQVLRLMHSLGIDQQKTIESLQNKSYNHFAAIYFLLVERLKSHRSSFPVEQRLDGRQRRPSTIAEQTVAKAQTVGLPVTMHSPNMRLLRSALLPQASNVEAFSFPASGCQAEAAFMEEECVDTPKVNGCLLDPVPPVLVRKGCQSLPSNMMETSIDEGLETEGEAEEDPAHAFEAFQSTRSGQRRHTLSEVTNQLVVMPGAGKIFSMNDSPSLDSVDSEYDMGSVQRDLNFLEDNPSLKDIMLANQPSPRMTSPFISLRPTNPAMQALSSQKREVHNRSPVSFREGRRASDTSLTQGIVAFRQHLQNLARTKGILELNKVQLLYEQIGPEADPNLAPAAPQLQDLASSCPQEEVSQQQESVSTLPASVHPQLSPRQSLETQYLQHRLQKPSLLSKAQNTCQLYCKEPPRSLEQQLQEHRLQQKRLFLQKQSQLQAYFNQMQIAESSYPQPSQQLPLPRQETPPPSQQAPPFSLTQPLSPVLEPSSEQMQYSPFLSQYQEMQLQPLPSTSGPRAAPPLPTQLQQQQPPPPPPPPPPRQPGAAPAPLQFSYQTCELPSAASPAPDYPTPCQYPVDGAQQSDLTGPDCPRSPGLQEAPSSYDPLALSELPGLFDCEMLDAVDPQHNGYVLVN

As for `Cc1cc(-c2ccn3nc(NC(=O)C4CC4)cc3c2)c(OCC2(O)CCC(F)(F)CC2)cn1` (racemic) [Example 188, rac-N-[5-[5-[(4,4-difluoro-1-hydroxy-cyclohexyl)methoxy]-2-methyl-4-pyridyl]pyrazolo[1,5-a]pyridin-2-yl]cyclopropanecarboxamide], the IC50 under setting [1] was 0.0478 µM.

With `Cc1cc(-c2ccn3nc(Nc4cc(C)nc(C)n4)cc3c2)c(OC[C@](C)(N)C(F)(F)F)cn1` (racemic) [Example 267, (rac-)-5-[5-(2-amino-3,3,3-trifluoro-2-methyl-propoxy)-2-methyl-4-pyridyl]-N-(2,6-dimethylpyrimidin-4-yl)pyrazolo[1,5-a]pyridin-2-amine], under setting [1], the IC50 came to 0.00331 µM. On the same count and under the same terms, the result for `Cc1cc(-c2ccn3nc(Nc4cc(C)nc(C)n4)cc3c2)c(OCC2CC(=O)N(C)C2(C)C)cn1` (racemic) [Example 325, (rac)-4-[[4-[2-[(2,6-dimethylpyrimidin-4-yl)amino]pyrazolo[1,5-a]pyridin-5-yl]-6-methyl-3-pyridyl]oxymethyl]-1,5,5-trimethyl-pyrrolidin-2-one] reads 0.00265 µM. For the compound `Cc1cc(-c2ccn3nc(Nc4cc(C)nc(C)n4)cc3c2)c(OCC2CNS(=O)(=O)N2)cn1` (racemic) [Example 352, (rac-)-N-(2,6-dimethylpyrimidin-4-yl)-5-[5-[(1,1-dioxo-1,2,5-thiadiazolidin-3-yl)methoxy]-2-methyl-4-pyridyl]pyrazolo[1,5-a]pyridin-2-amine], the IC50 was found to be 0.0031 µM. For `Cc1cc(-c2ccn3nc(Nc4cc(C)nc(C)n4)cc3c2)c(OCC2CCS(=O)(=O)N2)cn1` (racemic) [Example 353, (rac-)-N-(2,6-dimethylpyrimidin-4-yl)-5-[5-[(1,1-dioxo-1,2-thiazolidin-3-yl)methoxy]-2-methyl-4-pyridyl]pyrazolo[1,5-a]pyridin-2-amine], it took 0.0451 µM to reach half-maximal inhibition (IC50). Same read-out and setting: the result for `Cc1cc(-c2ccn3nc(NC(=O)C4CC4)cc3c2)c(OCC2NCC2(F)F)cn1` (racemic) [Example 469, rac-N-[5-[5-[(3,3-difluoroazetidin-2-yl)methoxy]-2-methyl-4-pyridyl]pyrazolo[1,5-a]pyridin-2-yl]cyclopropanecarboxamide] reads 0.00448 µM; that for `Cc1cc(-c2ccn3nc(NC(=O)C4CC4)cc3c2)c(OCC2NCC23CCOCC3)cn1` (racemic) [Example 472, Racemic-N-[5-[2-methyl-5-(7-oxa-2-azaspiro[3.5]nonan-3-ylmethoxy)-4-pyridyl]pyrazolo[1,5-a]pyridin-2-yl]cyclopropanecarboxamide], 0.0263 µM. Turning to `Cc1cc(-c2ccn3nc(Nc4cc(C)nc(C)n4)cc3c2)c(OCC2CC(=O)N(C)C2)cn1` (racemic) [Example 542, (rac-)-4-[[4-[2-[(2,6-dimethylpyrimidin-4-yl)amino]pyrazolo[1,5-a]pyridin-5-yl]-6-methyl-3-pyridyl]oxymethyl]-1-methyl-pyrrolidin-2-one], the concentration for half-maximal inhibition (IC50) under setting [1] stood at 0.0425 µM.

Take `CO[C@H]1CN(C)C[C@@H]1COc1cnc(C)cc1-c1ccn2nc(NC(=O)C3CC3)cc2c1` (racemic) [Example 571, (3RS, 4RS)—N-[5-[5-[(4-methoxy-1-methyl-pyrrolidin-3-yl)methoxy]-2-methyl-4-pyridyl]pyrazolo[1,5-a]pyridin-2-yl]cyclopropanecarboxamide]: the IC50 under setting [1] is 0.165 µM. Take `CC[C@@H]1NC[C@@H]1Oc1cnc(C)cc1-c1ccn2nc(NC(=O)C3CC3)cc2c1` (relative stereo) [Example 453, (*S, *S)—N-[5-[5-(2-ethylazetidin-3-yl)oxy-2-methyl-4-pyridyl]pyrazolo[1,5-a]pyridin-2-yl]cyclopropanecarboxamide]: the IC50 stood at 0.0334 µM. For `Cc1cc(-c2ccn3nc(NC(=O)C4CC4)cc3c2)c(O[C@@H]2CN(C)[C@@H]2C)cn1` (relative stereo) [Example 455, *R, *R—N-[5-[5-(1,2-dimethylazetidin-3-yl)oxy-2-methyl-4-pyridyl]pyrazolo[1,5-a]pyridin-2-yl]cyclopropanecarboxamide], the IC50 amounted to 0.0356 µM.

For `CO[C@H]1CNC[C@@H]1COc1cnc(C)cc1-c1ccn2nc(NC(=O)C3CC3)cc2c1` (relative stereo) [Example 458, Trans-*R, *R—N-[5-[5-[(4-methoxypyrrolidin-3-yl)methoxy]-2-methyl-4-pyridyl]pyrazolo[1,5-a]pyridin-2-yl]cyclopropanecarboxamide], the IC50 under setting [1] was 0.00555 µM. As for `Cc1cc(Nc2cc3cc(-c4cc(O[C@H](C)C#N)ncc4O[C@H]4CC[C@H](O)CC4)ccn3n2)nc(C)n1` (relative stereo) [Example 721, (*R)-2-[[4-[2-[(2,6-dimethylpyrimidin-4-yl)amino]pyrazolo[1,5-a]pyridin-5-yl]-5-(4-hydroxycyclohexoxy)-2-pyridyl]oxy]propanenitrile], the IC50 under setting [1] is 0.0261 µM. Consider `Cc1cc(-c2ccn3nc(NC(=O)C4CC4)cc3c2)c(OCC(C)(N)C(F)(F)F)cn1` (single isomer, unassigned) [Example 159, (*R)—N-[5-[5-(2-amino-3,3,3-trifluoro-2-methyl-propoxy)-2-methyl-4-pyridyl]pyrazolo[1,5-a]pyridin-2-yl]cyclopropanecarboxamide], for which the IC50 under setting [1] turned out to be 0.0107 µM.

Consider `Cc1cc(-c2ccn3nc(NC(=O)C4CC4)cc3c2)c(OCC(C)(N)C(F)(F)F)cn1` (single isomer, unassigned) [Example 160, (*S)—N-[5-[5-(2-amino-3,3,3-trifluoro-2-methyl-propoxy)-2-methyl-4-pyridyl]pyrazolo[1,5-a]pyridin-2-yl]cyclopropanecarboxamide], for which, under setting [1], the 50% inhibitory concentration (IC50) is 0.0444 µM. For the compound `Cc1cc(-c2ccn3nc(NC(=O)C4CC4)cc3c2)c(OC[C@@](C)(O)C(F)(F)F)cn1` (single isomer, unassigned) [Example 189, (*R)—N-(5-(2-methyl-5-(3,3,3-trifluoro-2-hydroxy-2-methylpropoxy)pyridin-4-yl)pyrazolo[1,5-a]pyridin-2-yl)cyclopropanecarboxamide], the IC50 under setting [1] was found to be 0.0367 µM. For the compound `Cc1cc(-c2ccn3nc(NC(=O)C4CC4)cc3c2)c(OC[C@](C)(O)C(F)(F)F)cn1` (single isomer, unassigned) [Example 190, (*S)—N-(5-(2-methyl-5-(3,3,3-trifluoro-2-hydroxy-2-methylpropoxy)pyridin-4-yl)pyrazolo[1,5-a]pyridin-2-yl)cyclopropanecarboxamide], the IC50 under setting [1] is 0.0255 µM.

Take `Cc1cc(-c2ccn3nc(NC(=O)C4CC4)cc3c2)c(OC[C@](C)(O)C2CC2)cn1` (single isomer, unassigned) [Example 193, (*R)—N-(5-(5-(2-cyclopropyl-2-hydroxypropoxy)-2-methylpyridin-4-yl)pyrazolo[1,5-a]pyridin-2-yl)cyclopropanecarboxamide]: the half-inhibitory concentration (IC50) under setting [1] turned out to be 0.0234 µM. Turning to `Cc1cc(-c2ccn3nc(NC(=O)C4CC4)cc3c2)c(O[C@@H]2CCC[C@@H](O)C2)cn1` (single isomer, unassigned) [Example 194, trans-N-(5-(5-(((1*R,3*R)-3-hydroxycyclohexyl)oxy)-2-methylpyridin-4-yl)pyrazolo[1,5-a]pyridin-2-yl)cyclopropanecarboxamide], the IC50 under setting [1] is 0.0412 µM. Take `Cc1cc(-c2ccn3nc(NC(=O)C4CC4)cc3c2)c(O[C@H]2CCC[C@H](O)C2)cn1` (single isomer, unassigned) [Example 195, trans-N-(5-(5-(((1*S,3*S)-3-hydroxycyclohexyl)oxy)-2-methylpyridin-4-yl)pyrazolo[1,5-a]pyridin-2-yl)cyclopropanecarboxamide]: the IC50 under setting [1] is 0.0116 µM. For `Cc1cc(-c2ccn3nc(NC(=O)C4CC4)cc3c2)c(OC[C@@H](O)C2CCCCC2)cn1` (single isomer, unassigned) [Example 197, (*S)—N-(5-(5-(2-cyclohexyl-2-hydroxyethoxy)-2-methylpyridin-4-yl)pyrazolo[1,5-a]pyridin-2-yl)cyclopropanecarboxamide], the IC50 under setting [1] was 0.0195 µM. Regarding `Cc1cc(-c2ccn3nc(Nc4cc(C)nc(C)n4)cc3c2)c(OC[C@@]2(O)CCOC2)cn1` (single isomer, unassigned) [Example 203, (*R)-3-(((4-(2-((2,6-dimethylpyrimidin-4-yl)amino)pyrazolo[1,5-a]pyridin-5-yl)-6-methylpyridin-3-yl)oxy)methyl)tetrahydrofuran-3-ol], under setting [1], the IC50 worked out at 0.0469 µM.

Regarding `Cc1cc(-c2ccn3nc(Nc4cc(C)nc(C)n4)cc3c2)c(OC[C@H]2CCO[C@H]2C)cn1` (single isomer, unassigned) [Example 206, N-(2,6-dimethylpyrimidin-4-yl)-5-(2-methyl-5-(((2*S,3*R)-2-methyltetrahydrofuran-3-yl)methoxy)pyridin-4-yl)pyrazolo[1,5-a]pyridin-2-amine], under setting [1], the half-inhibitory concentration (IC50) is 0.0175 µM. Take `Cc1cc(-c2ccn3nc(Nc4cc(C)nc(C)n4)cc3c2)c(OC[C@@H]2CCO[C@@H]2C)cn1` (single isomer, unassigned) [Example 207, N-(2,6-dimethylpyrimidin-4-yl)-5-(2-methyl-5-(((2*R,3*S)-2-methyltetrahydrofuran-3-yl)methoxy)pyridin-4-yl)pyrazolo[1,5-a]pyridin-2-amine]: under setting [1], the IC50 came to 0.00878 µM. Take `Cc1cc(-c2ccn3nc(NC(=O)C4CC4)cc3c2)c(OCC2(C#N)CCNC2)cn1` (single isomer, unassigned) [Example 210, (*S)—N-[5-[5-[(3-cyanopyrrolidin-3-yl)methoxy]-2-methyl-4-pyridyl]pyrazolo[1,5-a]pyridin-2-yl]cyclopropanecarboxamide]: the IC50 under setting [1] stood at 0.00307 µM.
